Data published in patent publication US20250382344A1, “Soluble GLP1/GIP/NPY2 Receptor Triple Agonists” (Boehringer Ingelheim International GmH, priority 2024, published 2025).
Read-outs that look alike come from different tables or passages of the source.

Columns and labels:
hGLP1R = target: T1, hGLP1R (Homo sapiens, UniProt P43220); test: hGLP1R CreLuc assay in 0.5% and 100% plasma (HEK-293 CRE-luciferase reporter cells); type: cell-based; conditions: 0.5% human plasma, HEK-293 reporter cells, read-out: hGLP1R 0.5% hP
T1 construct: expressed in transfected cells; host or cells: HEK-293 CRE-luciferase reporter cells
T1 sequence (P43220 24-463): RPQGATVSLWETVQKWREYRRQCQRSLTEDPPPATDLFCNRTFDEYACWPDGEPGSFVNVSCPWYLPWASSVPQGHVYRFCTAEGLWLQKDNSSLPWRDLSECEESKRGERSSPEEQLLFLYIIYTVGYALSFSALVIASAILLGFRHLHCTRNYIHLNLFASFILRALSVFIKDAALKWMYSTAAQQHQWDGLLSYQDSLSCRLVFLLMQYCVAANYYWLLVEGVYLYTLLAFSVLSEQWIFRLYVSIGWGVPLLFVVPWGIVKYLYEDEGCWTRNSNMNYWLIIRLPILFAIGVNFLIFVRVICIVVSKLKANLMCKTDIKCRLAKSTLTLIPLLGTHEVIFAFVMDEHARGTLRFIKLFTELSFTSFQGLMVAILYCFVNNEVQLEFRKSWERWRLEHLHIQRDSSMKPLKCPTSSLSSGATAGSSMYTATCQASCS

hGIPR = target: T2, hGIPR (Homo sapiens, UniProt P48546); test: hGIPR CreLuc assay in 0.5% and 100% plasma (CHO CRE-luciferase reporter cells); type: cell-based
T2 construct: expressed in transfected cells; host or cells: CHO CRE-luciferase reporter cells
T2 sequence (P48546 22-466): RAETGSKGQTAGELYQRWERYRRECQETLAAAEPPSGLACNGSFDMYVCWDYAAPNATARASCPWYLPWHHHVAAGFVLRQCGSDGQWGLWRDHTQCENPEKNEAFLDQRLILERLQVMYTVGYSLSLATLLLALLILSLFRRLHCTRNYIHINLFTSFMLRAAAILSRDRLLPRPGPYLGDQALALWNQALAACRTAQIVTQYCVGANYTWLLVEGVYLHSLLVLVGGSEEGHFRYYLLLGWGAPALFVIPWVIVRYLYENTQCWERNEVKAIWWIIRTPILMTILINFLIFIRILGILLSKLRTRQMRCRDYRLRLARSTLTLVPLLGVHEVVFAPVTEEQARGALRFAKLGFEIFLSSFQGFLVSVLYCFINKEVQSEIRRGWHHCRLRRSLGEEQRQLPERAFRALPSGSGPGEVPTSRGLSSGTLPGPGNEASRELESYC

[1] = Solubility in 0.1 M phosphate buffer at pH 7; type: physicochemical; conditions: 0.1 M phosphate buffer at pH 7, 10 mg/mL final peptide concentration, shaking 2 hours at room temperature, peptides as TFA-salts, measured sample pH 6.5-7.0
[2] = 0.5% human plasma, read-out: hGIPR 0.5% hP
[3] = 100% human plasma, read-out: hGIPR 100% hP

SMILES | EC50 (hGLP1R) | EC50 (hGIPR; [2]) | solubility at 2 h [1] | solubility ([1]; read-out: Solubility) | EC50 (hGIPR; [3])
CC[C@H](C)[C@H](NC(=O)[C@H](CO)NC(=O)[C@H](Cc1ccc(O)cc1)NC(=O)[C@H](CC(=O)O)NC(=O)[C@H](CO)NC(=O)[C@@H](NC(=O)[C@H](Cc1ccccc1)NC(=O)[C@@H](NC(=O)CNC(=O)[C@H](CCC(=O)O)NC(=O)C(C)(C)NC(=O)[C@@H](N)Cc1ccc(O)cc1)[C@@H](C)O)[C@@H](C)O)C(=O)N[C@@H](CCC(=O)O)C(=O)N[C@@H](CC(C)C)C(=O)N[C@@H](CCC(=O)O)C(=O)N[C@@H](CCCCN)C(=O)N[C@@H](CCC(N)=O)C(=O)N[C@@H](C)C(=O)N[C@@H](CCC(N)=O)C(=O)NC(C)(C)C(=O)N[C@@H](C)C(=O)N[C@@H](Cc1ccccc1)C(=O)N[C@H](C(=O)N[C@@H](CCCNC(=N)N)C(=O)N[C@@H](Cc1c[nH]cn1)C(=O)N[C@@H](CC(C)C)C(=O)N[C@H](C(=O)N[C@@H](CC(N)=O)C(=O)N[C@@H](CCCCNC(=O)[C@@H](N)CCCCNC(=O)CC[C@H](NC(=O)CC[C@H](NC(=O)CC[C@H](NC(=O)CC[C@H](NC(=O)CC[C@H](NC(=O)CC[C@H](NC(=O)CCCCCCCCCCCCCCCCC(=O)O)C(=O)O)C(=O)O)C(=O)O)C(=O)O)C(=O)O)C(=O)O)C(=O)NC(C)(C)C(=O)N[C@H](C(=O)N[C@@H](CCCNC(=N)N)C(=O)N[C@@H](CCC(N)=O)C(=O)N[C@@H](CCCNC(=N)N)C(=O)N[C@@H](Cc1ccc(O)cc1)C(N)=O)[C@@H](C)O)[C@@H](C)CC)C(C)C [Compound 160, Y-Aib-E-G-T-F-T-S-D-Y-S-I-E-L-E-K-Q-A-Q-Aib-A-F-V-R-H-L-I-N-K(1,3)-Aib-T-R-Q-R-Y-NH2.C18DA-gGlu-gGlu-gGlu-gGlu-gGlu-gGlu-eLys(1,2)] | 7.1 nM | 0.4 nM | 5200 µg/mL |  | 
CC[C@H](C)[C@H](NC(=O)[C@H](CC(C)C)NC(=O)[C@H](Cc1c[nH]cn1)NC(=O)[C@H](CCCNC(=N)N)NC(=O)[C@@H](NC(=O)[C@H](Cc1ccccc1)NC(=O)[C@H](C)NC(=O)C(C)(C)NC(=O)[C@H](CCC(N)=O)NC(=O)[C@H](C)NC(=O)[C@H](CCC(N)=O)NC(=O)[C@H](CCCCN)NC(=O)[C@H](CCC(=O)O)NC(=O)[C@H](CC(C)C)NC(=O)C(C)(C)NC(=O)[C@H](C)NC(=O)[C@H](CO)NC(=O)[C@H](Cc1ccc(O)cc1)NC(=O)[C@H](CC(=O)O)NC(=O)[C@H](CO)NC(=O)[C@@H](NC(=O)[C@H](Cc1ccccc1)NC(=O)[C@@H](NC(=O)CNC(=O)[C@H](CCC(=O)O)NC(=O)C(C)(C)NC(=O)[C@@H](N)Cc1ccc(O)cc1)[C@@H](C)O)[C@@H](C)O)C(C)C)C(=O)N[C@@H](CC(N)=O)C(=O)N[C@@H](CCCCNC(=O)[C@@H](N)CCCCNC(=O)CC[C@H](NC(=O)CC[C@H](NC(=O)CC[C@H](NC(=O)CC[C@H](NC(=O)CC[C@H](NC(=O)CC[C@H](NC(=O)CCCCCCCCCCCCCCCCC(=O)O)C(=O)O)C(=O)O)C(=O)O)C(=O)O)C(=O)O)C(=O)O)C(=O)NC(C)(C)C(=O)N[C@H](C(=O)N[C@@H](CCCNC(=N)N)C(=O)N[C@@H](CCC(N)=O)C(=O)N[C@@H](CCCNC(=N)N)C(=O)N[C@@H](Cc1ccc(O)cc1)C(N)=O)[C@@H](C)O [Compound 156, Y-Aib-E-G-T-F-T-S-D-Y-S-A-Aib-L-E-K-Q-A-Q-Aib-A-F-V-R-H-L-I-N-K(1,3)-Aib-T-R-Q-R-Y-NH2.C18DA-gGlu-gGlu-gGlu-gGlu-gGlu-gGlu-eLys(1,2)] | 7 nM | 0.8 nM |  | 5100 µg/mL | 
CC[C@H](C)[C@H](NC(=O)[C@H](CC(C)C)NC(=O)[C@H](Cc1c[nH]cn1)NC(=O)[C@H](CCCNC(=N)N)NC(=O)[C@@H](NC(=O)[C@H](Cc1ccccc1)NC(=O)[C@H](CCC(=O)O)NC(=O)C(C)(C)NC(=O)[C@H](CCC(N)=O)NC(=O)[C@H](C)NC(=O)[C@H](CCC(N)=O)NC(=O)[C@H](CCCCN)NC(=O)[C@H](CCC(=O)O)NC(=O)[C@H](CC(C)C)NC(=O)C(C)(C)NC(=O)[C@@H](NC(=O)[C@H](CO)NC(=O)[C@H](Cc1ccc(O)cc1)NC(=O)[C@H](CC(=O)O)NC(=O)[C@H](CO)NC(=O)[C@@H](NC(=O)[C@H](Cc1ccccc1)NC(=O)[C@@H](NC(=O)CNC(=O)[C@H](CCC(=O)O)NC(=O)C(C)(C)NC(=O)[C@@H](N)Cc1ccc(O)cc1)[C@@H](C)O)[C@@H](C)O)[C@@H](C)CC)C(C)C)C(=O)N[C@@H](CC(N)=O)C(=O)N[C@@H](CCCCNC(=O)[C@@H](N)CCCCNC(=O)CC[C@H](NC(=O)CC[C@H](NC(=O)CC[C@H](NC(=O)CC[C@H](NC(=O)CCCCCCCCCCCCCCCCC(=O)O)C(=O)O)C(=O)O)C(=O)O)C(=O)O)C(=O)NC(C)(C)C(=O)N[C@H](C(=O)N[C@@H](CCCNC(=N)N)C(=O)N[C@@H](CCC(N)=O)C(=O)N[C@@H](CCCNC(=N)N)C(=O)N[C@@H](Cc1ccc(O)cc1)C(N)=O)[C@@H](C)O [Compound 163, Y-Aib-E-G-T-F-T-S-D-Y-S-I-Aib-L-E-K-Q-A-Q-Aib-E-F-V-R-H-L-I-N-K(1,3)-Aib-T-R-Q-R-Y-NH2.C18DA-gGlu-gGlu-gGlu-gGlu-eLys(1,2)] | 0.1 nM | 0.2 nM | 5000 µg/mL |  | 5.9 nM

More lines, now with the values ahead:

EC50 (hGLP1R) | EC50 (hGIPR; [2]) | solubility at 2 h [1] | solubility ([1]; read-out: Solubility) | EC50 (hGIPR; [3]) | SMILES
0.3 nM | 0.2 nM | 10600 µg/mL |  |  | CC[C@H](C)[C@H](NC(=O)[C@H](CC(C)C)NC(=O)[C@H](Cc1c[nH]cn1)NC(=O)[C@H](CCCNC(=N)N)NC(=O)[C@@H](NC(=O)[C@H](Cc1ccccc1)NC(=O)[C@H](C)NC(=O)C(C)(C)NC(=O)[C@H](CCC(N)=O)NC(=O)[C@H](C)NC(=O)[C@H](CCC(N)=O)NC(=O)[C@H](CCCCN)NC(=O)[C@H](CCC(=O)O)NC(=O)[C@H](CC(C)C)NC(=O)C(C)(C)NC(=O)[C@@H](NC(=O)[C@H](CO)NC(=O)[C@H](Cc1ccc(O)cc1)NC(=O)[C@H](CC(=O)O)NC(=O)[C@H](CO)NC(=O)[C@@H](NC(=O)[C@H](Cc1ccccc1)NC(=O)[C@@H](NC(=O)CNC(=O)[C@H](CCC(=O)O)NC(=O)C(C)(C)NC(=O)[C@@H](N)Cc1ccc(O)cc1)[C@@H](C)O)[C@@H](C)O)[C@@H](C)CC)C(C)C)C(=O)N[C@@H](CC(N)=O)C(=O)N[C@@H](CCCCNC(=O)CC[C@H](NC(=O)CC[C@H](NC(=O)[C@@H](N)CCCCNC(=O)CC[C@H](NC(=O)CC[C@H](NC(=O)CC[C@H](NC(=O)CC[C@H](NC(=O)CCCCCCCCCCCCCCCCC(=O)O)C(=O)O)C(=O)O)C(=O)O)C(=O)O)C(=O)O)C(=O)O)C(=O)NC(C)(C)C(=O)N[C@H](C(=O)N[C@@H](CCCNC(=N)N)C(=O)N[C@@H](CCC(N)=O)C(=O)N[C@@H](CCCNC(=N)N)C(=O)N[C@@H](Cc1ccc(O)cc1)C(N)=O)[C@@H](C)O [Compound 34, Y-Aib-E-G-T-F-T-S-D-Y-S-I-Aib-L-E-K-Q-A-Q-Aib-A-F-V-R-H-L-I-N-K(1,3)-Aib-T-R-Q-R-Y-NH2.C18DA-gGlu-gGlu-gGlu-gGlu-eLys-gGlu-gGlu(1,2)]
2 nM | 0.3 nM | 4200 µg/mL |  | 3.4 nM | CC[C@H](C)[C@H](NC(=O)[C@H](CC(C)C)NC(=O)[C@H](Cc1c[nH]cn1)NC(=O)[C@H](CCCNC(=N)N)NC(=O)[C@@H](NC(=O)[C@H](Cc1ccccc1)NC(=O)[C@H](C)NC(=O)C(C)(C)NC(=O)[C@H](CCC(N)=O)NC(=O)[C@H](C)NC(=O)[C@H](CCC(N)=O)NC(=O)[C@H](CCCCN)NC(=O)[C@H](CCC(=O)O)NC(=O)[C@H](CC(C)C)NC(=O)C(C)(C)NC(=O)[C@@H](NC(=O)[C@H](CO)NC(=O)[C@H](Cc1ccc(O)cc1)NC(=O)[C@H](CC(=O)O)NC(=O)[C@H](CO)NC(=O)[C@@H](NC(=O)[C@H](Cc1ccccc1)NC(=O)[C@@H](NC(=O)CNC(=O)[C@H](CCC(=O)O)NC(=O)C(C)(C)NC(=O)[C@@H](N)Cc1ccc(O)cc1)[C@@H](C)O)[C@@H](C)O)[C@@H](C)CC)C(C)C)C(=O)N[C@@H](CC(N)=O)C(=O)N[C@@H](CCCCNC(=O)[C@@H](N)CCCCNC(=O)CC[C@H](NC(=O)CC[C@H](NC(=O)CC[C@H](NC(=O)CC[C@H](NC(=O)CC[C@H](NC(=O)CC[C@H](NC(=O)CCCCCCCCCCCCCCCCC(=O)O)C(=O)O)C(=O)O)C(=O)O)C(=O)O)C(=O)O)C(=O)O)C(=O)NC(C)(C)C(=O)N[C@H](C(=O)N[C@@H](CCCNC(=N)N)C(=O)N[C@@H](CCC(N)=O)C(=O)N[C@@H](CCCNC(=N)N)C(=O)N(C)[C@@H](Cc1ccc(O)cc1)C(N)=O)[C@@H](C)O [Compound 116, Y-Aib-E-G-T-F-T-S-D-Y-S-I-Aib-L-E-K-Q-A-Q-Aib-A-F-V-R-H-L-I-N-K(1,3)-Aib-T-R-Q-R-NMeY-NH2.C18DA-gGlu-gGlu-gGlu-gGlu-gGlu-gGlu-eLys(1,2)]
